Structures are written as SMILES.

The values that follow come from US4115482A, “Stereospecific cis- and trans-vinylic phosphorus esters” (priority 1977, dated 1978).

In assay [1] the target is T1, bovine cholinesterase (Bos taurus, UniProt P23795).
T1 construct: Ellman test with acetylthiocholine
In words: Cholesterinase placeholder. The assay is classed as biochemical. The settings on record: for Cholinesterase IC50 (50% inhibiting concentration), after oxidation: after oxidation with peracetic acid in benzene (75°, 20 minutes) to the corresponding monothiophosphate, bovine cholinesterase, 35° C., 30 minutes. On the procedure:
The insecticidal effectiveness of organophosphorus compounds is generally attributed to their inhibition of the cholinesterase enzyme. This inhibiting potency is usually expressed as the concentration of the compound which will reduce the activity of the enzyme by 50%, i.e. […]. The […] values of several cis- and trans-S-propenyl dialkyl dithiophosphates were determined to estimate the relative insecticidal potential of the geometric isomer pairs.
Test Method: To a solution of 0.2 unit of bovine cholinesterase in 2.97 ml of a buffer solution containing 11.15 g of disodium hydrogen phosphate dodecahydrate and 1.81 g of potassium dihydrogen phosphate per liter of water, 0.03 ml of a solution of the dithiophosphate adduct in benzene was added. This mixture was then incubated in a water bath at 35° C. for 30 minutes. One ml of a solution containing 100 mg of 5,5'-dithiobis-(2-nitrobenzoic acid), 100 mg of acetylthiocholine iodide, and 75 ml of the above buffer solution in sufficient water to make 200 ml was then added and the mixture again incubated in a water bath at 35° C. for 30 minutes more. The amount of inhibition of bovine cholinesterase was then determined from the absorbance of this solution at 420 millimicrons. By using a series of solutions of the test chemical at various concentrations in acetone, the concentration needed for 50% inhibition was determined.
The oxidation was carried out with peracetic acid in benzene solution at 75° for 20 minutes. After the removal of the excess peracetic acid, the benzene solution was used for enzyme inhibition as described above.
The median inhibiting concentrations for the cis- and trans-S-propenyl dimethyl and diethyl dithiophosphates are listed in Table II. Data on S-vinyl dimethyl dithiophosphate are also tabulated for comparison.

Assay [2] has as its system two spotted spider mite. Kind of assay: Systemic miticidal action on potted bean plants (soil treatment). The assay is classed as in vivo. The following applies: 20 ml of aqueous emulsion containing 0.05% of the chemical applied to soil, 5 days. On the procedure: For this purpose, a systemic pesticide test on mites was chosen as an example.
Test Method: Potted bean plants were infested with the two spotted spider mite. The soil in the pots was then treated by applying 20 ml of aqueous emulsion containing 0.05% of the chemical. The emulsions were prepared by dissolving the cis- and the trans-compound in acetone and dispersing it in distilled water with Triton X-100. (The emulsifier is an alkylaryl polyether alcohol derived from nonylphenol and ethylene oxide). After the application of the test emulsion, the plants were held for 5 days and then the degree of mite control was rated.

T1 sequence (P23795 31-613): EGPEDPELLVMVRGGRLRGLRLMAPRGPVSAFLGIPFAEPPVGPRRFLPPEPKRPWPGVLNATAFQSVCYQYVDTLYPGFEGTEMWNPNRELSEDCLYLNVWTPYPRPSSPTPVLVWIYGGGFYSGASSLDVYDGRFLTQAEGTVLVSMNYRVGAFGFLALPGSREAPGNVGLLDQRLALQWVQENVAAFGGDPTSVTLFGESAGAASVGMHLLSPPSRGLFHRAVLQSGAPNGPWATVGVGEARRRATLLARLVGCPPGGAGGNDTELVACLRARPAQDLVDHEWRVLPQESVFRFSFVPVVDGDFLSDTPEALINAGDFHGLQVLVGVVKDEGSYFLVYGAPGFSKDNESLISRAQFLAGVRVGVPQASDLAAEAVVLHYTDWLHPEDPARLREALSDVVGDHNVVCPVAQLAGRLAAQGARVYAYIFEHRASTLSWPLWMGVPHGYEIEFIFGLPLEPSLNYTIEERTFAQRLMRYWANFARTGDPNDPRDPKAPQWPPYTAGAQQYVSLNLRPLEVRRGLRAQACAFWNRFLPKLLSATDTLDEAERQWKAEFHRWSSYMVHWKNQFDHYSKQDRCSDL

`CC=CSP(=S)(OCC)OCC`: in assay [1], the “Cholinesterase IC50 (50% inhibiting concentration), after oxidation” value turned out to be 4.4e-06 mol/L.

With `C/C=C/SP(=S)(OCC)OCC` [Example 1, trans-S-Propenyl O,O'-Diethyl Dithiophosphate], the “Cholinesterase IC50 (50% inhibiting concentration), after oxidation” value in assay [1] amounted to 1.6e-07 mol/L.

As to `C/C=C\SP(=S)(OCC)OCC` [Example 2, cis-Propenyl O,O'-Diethyl Dithiophosphate], the “Cholinesterase IC50 (50% inhibiting concentration), after oxidation” value in assay [1] came out at 0.00018 mol/L.

On to `C/C=C\SP(=S)(OC)OC` [Example 3, cis-Propenyl O,O'-Dimethyl Dithiophosphate], for which the “Cholinesterase IC50 (50% inhibiting concentration), after oxidation” value in assay [1] amounted to 4.1e-05 mol/L. Moreover, the “degree of mite control (systemic)” value in assay [2] was “there were live mites and their nymphs”.

On to `C/C=C/SP(=S)(OC)OC` [Example 4, trans-S-Propenyl O,O'-Dimethyl Dithiophosphate], for which, in assay [1], the “Cholinesterase IC50 (50% inhibiting concentration), after oxidation” value came to 2.8e-08 mol/L. The “cholinesterase inhibition, comparison in words” value in assay [1] (relative inhibiting potency of isomers, oxidized forms and S-vinyl analog) is on record as “the substitution of the trans-vinylic hydrogen by a methyl group increases the insecticidal potential”. For the same compound, the “degree of mite control (systemic)” value in assay [2] is “completely free from mites and nymphs”.

For the compound `C=CSP(=S)(OC)OC` [Reference, S-vinyl dimethyl dithiophosphate, reference compound], the “Cholinesterase IC50 (50% inhibiting concentration), after oxidation” value in assay [1] is given as 3.1 × 10^ -6 mole/liter.
